pEC50: −log10 of the molar value. Like-named read-outs stand apart in the source and are kept apart here.
What was measured:
[1] = system: U-87 MG human glioblastoma; test: U87 MG CCK-8 proliferation assay; assay type: cell-based; conditions: U-87 MG cells, read-out: U87MG CCK-8
Method: (§1) The following cancer cell lines were employed: A549 human lung carcinoma (ATCC, #CCL-185); BT-474 human breast carcinoma (ATCC, #HTB-20); MDA-MB-231 human breast adenocarcinoma (ATCC, #CRM−HTB-26); MDA-MB-468 human breast adenocarcinoma (ATCC, #HTB-132); MV-4-11 human acute myeloid leukemia (ATCC, #CRL-9591); and U-87 MG human glioblastoma (ATCC, #HTB-14). Cell lines were cultured essentially according to ATCC recommendations.
(§2) 3-fold serial dilutions of each test compound were prepared ranging from 20 μM to 1.02 nM.
(§3) % Inhibition=100−(D−B)/(S−B)*100%. • S: Absorbance of cells treated with DMSO • D: Absorbance of compound-treated cells • B: Absorbance of medium with DMSO without cells

[2] = system: MV-4-11 human acute myeloid leukemia; test: MV-4-11 CCK-8 proliferation assay; assay type: cell-based; conditions: MV-4-11 cells, 72 hr
Method: as §1, §2, §3

| Structure (SMILES) | pEC50 ([1]; Homo sapiens, U-87 MG, 72 h) | pEC50 ([2]; Homo sapiens, MV4-11) | also measured |
| --- | --- | --- | --- |
| CCOc1cc(N2CCC(C(=O)NCCOCCOc3ccc(-n4c(O)nnc4-c4cc(CC)c(O)cc4O)cc3)CC2)ccc1Nc1ncc2c(n1)N(C)c1ccccc1C(=O)N2C [Compound 014, 1-(4-((5,11-dimethyl-6-oxo-6,11-dihydro-5H-benzo[e]pyrimido[5,4-b][1,4]diazepin-2-yl)amino)-3-ethoxyphenyl)-N-(2-(2-(4-(3-(5-ethyl-2,4-dihydroxyphenyl)-5-hydroxy-4H-1,2,4-triazol-4-yl)phenoxy)ethoxy)ethyl)piperidine-4-carboxamide] | 6.00 to 7.00 | 6.00 to 7.00 |  |
| CCOc1cc(N2CCC(C(=O)N3CCC(N4CCN(Cc5ccc(-n6c(O)nnc6-c6cc(C(C)C)c(O)cc6O)cc5F)CC4)CC3)CC2)ccc1Nc1ncc2c(n1)N(C)c1ccccc1C(=O)N2C [Compound 033, 2-((4-(4-(4-(4-(4-(3-(2,4-dihydroxy-5-isopropylphenyl)-5-hydroxy-4H-1,2,4-triazol-4-yl)-2-fluorobenzyl)piperazin-1-yl)piperidine-1-carbonyl)piperidin-1-yl)-2-ethoxyphenyl)amino)-5,11-dimethyl-5,11-dihydro-6H-benzo[e]pyrimido[5,4-b][1,4]diazepin-6-one] | 6.00 to 7.00 |  |  |
| CCCc1cc(-c2nnc(O)n2-c2ccc(CN3CCN(C(=O)C4CCN(c5ccc(Nc6ncc7c(n6)N(C)c6ccccc6C(=O)N7C)c(OCC)c5)CC4)CC3)cc2)c(O)cc1O [Compound 050, 2-((4-(4-(4-(4-(3-(2,4-dihydroxy-5-propylphenyl)-5-hydroxy-4H-1,2,4-triazol-4-yl)benzyl)piperazine-1-carbonyl)piperidin-1-yl)-2-ethoxyphenyl)amino)-5,11-dimethyl-5,11-dihydro-6H-benzo[e]pyrimido[5,4-b][1,4]diazepin-6-one] | 6.00 to 7.00 | > 7.00 |  |
| CCOc1cc(N2CCC(C(=O)NCCOCCOCCOc3ccc(Nc4cc(-n5nc(C(F)(F)F)c6c5CC(C)(C)CC6=O)ccc4C(N)=O)cc3)CC2)ccc1Nc1ncc2c(n1)N(C)c1ccccc1C(=O)N2C [Compound 131, N-(2-(2-(2-(4-((2-carbamoyl-5-(6,6-dimethyl-4-oxo-3-(trifluoromethyl)-4,5,6,7-tetrahydro-1H-indazol-1-yl)phenyl)amino)phenoxy)ethoxy)ethoxy)ethyl)-1-(4-((5,11-dimethyl-6-oxo-6,11-dihydro-5H-benzo[e]pyrimido[5,4-b][1,4]diazepin-2-yl)amino)-3-ethoxyphenyl)piperidine-4-carboxamide] | < 6.00 | 6.00 to 7.00 |  |
| CCOc1cc(N2CCC(C(=O)N3CCC(Oc4ccc(-c5ccc(NC(=O)c6ccc(OC)c(-c7cccc(OC)c7)c6)cc5)cc4)CC3)CC2)ccc1Nc1ncc2c(n1)N(C)c1ccccc1C(=O)N2C [Compound 143, N-(4′-((1-(1-(4-((5,11-dimethyl-6-oxo-6,11-dihydro-5H-benzo[e]pyrimido[5,4-b][1,4]diazepin-2-yl)amino)-3-ethoxyphenyl)piperidine-4-carbonyl)piperidin-4-yl)oxy)-[1,1′-biphenyl]-4-yl)-3′,6-dimethoxy-[1,1′-biphenyl]-3-carboxamide] | < 6.00 | < 6.00 |  |
| CCOc1cc(N2CCC(C(=O)N3CCC(COc4ccc(-c5ccc(NC(=O)c6ccc(OC)c(-c7cccc(OC)c7)c6)cc5)c(OCCCN(C)C)c4)CC3)CC2)ccc1Nc1ncc2c(n1)N(C)c1ccccc1C(=O)N2C [Compound 151, N-(4′-((1-(1-(4-((5,11-dimethyl-6-oxo-6,11-dihydro-5H-benzo[e]pyrimido[5,4-b][1,4]diazepin-2-yl)amino)-3-ethoxyphenyl)piperidine-4-carbonyl)piperidin-4-yl)methoxy)-2′-(3-(dimethylamino)propoxy)-[1,1′-biphenyl]-4-yl)-3′,6-dimethoxy-[1,1′-biphenyl]-3-carboxamide] | < 6.00 |  |  |
| CCOc1cc(N2CCC(C(=O)N3CCC(CN4CCN(Cc5ccc(-n6c(C(=O)N[C@H](C)C(F)(F)F)nnc6-c6cc(CC)c(O)cc6O)cc5)CC4)CC3)CC2)ccc1Nc1ncc2c(n1)N(S(C)(=O)=O)c1ccccc1C(=O)N2C [Compound 176, (R)-4-(4-((4-((1-(1-(3-ethoxy-4-((5-methyl-11-(methylsulfonyl)-6-oxo-6,11-dihydro-5H-benzo[e]pyrimido[5,4-b][1,4]diazepin-2-yl)amino)phenyl)piperidine-4-carbonyl)piperidin-4-yl)methyl)piperazin-1-yl)methyl)phenyl)-5-(5-ethyl-2,4-dihydroxyphenyl)-N-(1,1,1-trifluoropropan-2-yl)-4H-1,2,4-triazole-3-carboxamide] |  |  | pEC50 ([1]; 72 hr): 6.00 to 7.00 |
| CCOc1cc(N2CCC(C(=O)N3CCC(CN4CCN(Cc5ccc(-n6c(C(=O)N[C@@H](C)C(F)(F)F)nnc6-c6cc(CC)c(O)cc6O)cc5)CC4)CC3)CC2)ccc1Nc1ncc2c(n1)N(S(C)(=O)=O)c1ccccc1C(=O)N2C [Compound 177, (S)-4-(4-((4-((1-(1-(3-ethoxy-4-((5-methyl-11-(methylsulfonyl)-6-oxo-6,11-dihydro-5H-benzo[e]pyrimido[5,4-b][1,4]diazepin-2-yl)amino)phenyl)piperidine-4-carbonyl)piperidin-4-yl)methyl)piperazin-1-yl)methyl)phenyl)-5-(5-ethyl-2,4-dihydroxyphenyl)-N-(1,1,1-trifluoropropan-2-yl)-4H-1,2,4-triazole-3-carboxamide] |  |  | pEC50 [2]: > 7.00 |

Continued, in another order:

| pEC50 ([1]; Homo sapiens, U-87 MG, 72 h) | pEC50 ([2]; Homo sapiens, MV4-11) | Structure (SMILES) | also measured |
| --- | --- | --- | --- |
|  | < 6.00 | CCOc1cc(N2CCC(C(=O)N3CCC(CN4CCC(Oc5ccc(-c6ccc(NC(=O)c7ccc(OC)c(-c8cccc(OC)c8)c7)cc6)c(OCCCN(C)C)c5)CC4)CC3)CC2)ccc1Nc1ncc2c(n1)N(C)c1ccccc1C(=O)N2C [Compound 153, N-(4′-((1-((1-(1-(4-((5,11-dimethyl-6-oxo-6,11-dihydro-5H-benzo[e]pyrimido[5,4-b][1,4]diazepin-2-yl)amino)-3-ethoxyphenyl)piperidine-4-carbonyl)piperidin-4-yl)methyl)piperidin-4-yl)oxy)-2′-(3-(dimethylamino)propoxy)-[1,1′-biphenyl]-4-yl)-3′,6-dimethoxy-[1,1′-biphenyl]-3-carboxamide] |  |
|  | < 6.00 | CCOc1cc(N2CCC(C(=O)N3CCC(CN4CCC(Oc5ccc(-c6ccc(NC(=O)c7ccc(OC)c(-c8cccc(OC)c8)c7)cc6)cc5)CC4)CC3)CC2)ccc1Nc1ncc2c(n1)N(C)c1ccccc1C(=O)N2C [Compound 154, N-(4′-((1-((1-(1-(4-((5,11-dimethyl-6-oxo-6,11-dihydro-5H-benzo[e]pyrimido[5,4-b][1,4]diazepin-2-yl)amino)-3-ethoxyphenyl)piperidine-4-carbonyl)piperidin-4-yl)methyl)piperidin-4-yl)oxy)-[1,1′-biphenyl]-4-yl)-3′,6-dimethoxy-[1,1′-biphenyl]-3-carboxamide] |  |
|  | < 6.00 | CCOc1cc(N2CCC(C(=O)N3CCC(CN4CCC(Oc5ccc(-c6ccc(NC(=O)c7ccc(OC)c(-c8cccc(OC)c8)c7)cc6)c(OCCCN(C)C)c5)CC4)CC3)CC2)ccc1Nc1ncc2c(n1)N(S(C)(=O)=O)c1ccccc1C(=O)N2C [Compound 155, N-(2′-(3-(dimethylamino)propoxy)-4′-((1-((1-(1-(3-ethoxy-4-((5-methyl-11-(methylsulfonyl)-6-oxo-6,11-dihydro-5H-benzo[e]pyrimido[5,4-b][1,4]diazepin-2-yl)amino)phenyl)piperidine-4-carbonyl)piperidin-4-yl)methyl)piperidin-4-yl)oxy)-[1,1′-biphenyl]-4-yl)-3′,6-dimethoxy-[1,1′-biphenyl]-3-carboxamide] |  |
|  | < 6.00 | CCOc1cc(N2CCC(C(=O)N3CCC(CN4CCC(Oc5ccc(-c6ccc(NC(=O)c7ccc(OC)c(-c8cccc(OC)c8)c7)cc6)cc5)CC4)CC3)CC2)ccc1Nc1ncc2c(n1)N(S(C)(=O)=O)c1ccccc1C(=O)N2C [Compound 156, N-(4′-((1-((1-(1-(3-ethoxy-4-((5-methyl-11-(methylsulfonyl)-6-oxo-6,11-dihydro-5H-benzo[e]pyrimido[5,4-b][1,4]diazepin-2-yl)amino)phenyl)piperidine-4-carbonyl)piperidin-4-yl)methyl)piperidin-4-yl)oxy)-[1,1′-biphenyl]-4-yl)-3′,6-dimethoxy-[1,1′-biphenyl]-3-carboxamide] |  |
|  | < 6.00 | CCOc1cc(N2CCC(C(=O)NCCCOc3ccc(-c4ccc(NC(=O)c5ccc(OC)c(-c6cccc(OC)c6)c5)cc4)c(OCCCN(C)C)c3)CC2)ccc1Nc1ncc2c(n1)N(S(C)(=O)=O)c1ccccc1C(=O)N2C [Compound 157, N-(3-((4′-(3′,6-dimethoxy-[1,1′-biphenyl]-3-carboxamido)-2-(3-(dimethylamino)propoxy)-[1,1′-biphenyl]-4-yl)oxy)propyl)-1-(3-ethoxy-4-((5-methyl-11-(methylsulfonyl)-6-oxo-6,11-dihydro-5H-benzo[e]pyrimido[5,4-b][1,4]diazepin-2-yl)amino)phenyl)piperidine-4-carboxamide] |  |
|  | < 6.00 | CCOc1cc(N2CCC(C(=O)N3CCC(COc4ccc(-c5ccc(NC(=O)c6ccc(OC)c(-c7cccc(OC)c7)c6)cc5)c(OCCCN(C)C)c4)CC3)CC2)ccc1Nc1ncc2c(n1)N(S(C)(=O)=O)c1ccccc1C(=O)N2C [Compound 158, N-(2′-(3-(dimethylamino)propoxy)-4′-((1-(1-(3-ethoxy-4-((5-methyl-11-(methylsulfonyl)-6-oxo-6,11-dihydro-5H-benzo[e]pyrimido[5,4-b][1,4]diazepin-2-yl)amino)phenyl)piperidine-4-carbonyl)piperidin-4-yl)methoxy)-[1,1′-biphenyl]-4-yl)-3′,6-dimethoxy-[1,1′-biphenyl]-3-carboxamide] |  |

Source: patent US20240124460A1, “METHODS AND COMPOSITIONS FOR TARGETED PROTEIN DEGRADATION” (Ranok Therapeutics (Hangzhou) Co. Ltd., priority 2020, published 2024)
